Data taken from patent publication US11878047B2, “ATF5 peptide variants and uses thereof” (Sapience Therapeutics, Inc., priority 2018, dated 2024).
Where two headings read alike, the source gives them in different places. Ends that are not written are not given here.

How the values were obtained:
Format in all cases: cell-based, human
[1] = tested on: HL60 cells; assay: HL60 cell viability (cytotoxicity) assay, Annexin V FITC/PI flow cytometry
Description: HL60 PML suspension cells were set at a density of 3.5×10^3 cells/well in 150 μL of RPMI+1.5% fetal bovine serum (FBS) in a 96 well dish. ST-3, reconstituted at a concentration of 10 mg/mL in 20 mM His, pH 7.5, was added to each well at a volume of 50 μL to a final concentration range of 0-80 μM. Cells were incubated with ST-3 for 48 hours at 37° C. Cell viability was quantified by flow cytometry using an Abcam Annexin V FITC apoptosis detection kit. Briefly, cells were washed with PBS and resuspended in 1× assay buffer containing Annexin V FITC and propidium iodide (PI). Annexin V detects apoptotic cells, and PI stains dead cells. After staining, apoptotic cells show green fluorescence, dead cells show red and green fluorescence, and live cells show little or no fluorescence. Cells were selected for analysis based on forward scatter (FSC) vs. side scatter (SSC), and analyzed by BD Accuri C6 Plus flow cytometer to detect Annexin V-FITC binding (Ex=488 nm; Em=530 nm) using FITC signal detector and PI staining by the phycoerythrin emission signal detector. Percentage of Annexin V^low and PI^low were quantified and presented as % Viability.
Lyophilized ST-3 or ST-3 with glycine (ST-4) or alanine (ST-5) substituted for cysteine at amino acid position 21 was freshly reconstituted in histidine buffer to a stock solution of 5 mg/mL and added to cells at a final concentration range of 0-40 μM. Cells were incubated with ATF5 peptide for 48 hours prior to quantification of cell viability.
(§1) ST-13 was further examined in various human cancer cell lines, as was a second retro-inverso variant, ST-14. Suspension cells (HL60, AML14, or SET2) were set at a density of 3.5×10^3 cells/well in 150 μL of RPMI+1.5% fetal bovine serum (FBS) in a tissue culture-treated 96 well dish. ATF5 peptide, reconstituted at a concentration of 10 mg/mL in 20 mM His, pH 7.5, was added to each well at a volume of 50 μL to a final concentration range of 0-80 μM. Cells were incubated with peptide for 48 hours at 37° C. Cell viability was quantified by flow cytometry using an Abcam Annexin V FITC apoptosis detection kit. Briefly, cells were washed with PBS and resuspended in 1× assay buffer containing Annexin V FITC and propidium iodide (PI). Cells were analyzed by BD Accuri C6 Plus flow cytometer to detect Annexin V-FITC binding (Ex=488 nm; Em=530 nm) using FITC signal detector, and to detect PI staining using the phycoerythrin emission signal detector. Percentage of Annexin V^low and PI^low were quantified and presented as % Viability. EC50 values were calculated using GraphPad Prism v.7 XML.

[2] = tested on: AML14 acute myeloid leukemia cells
Description: as §1

[3] = tested on: SET2 acute myeloid leukemia cells
Description: as §1

[4] = tested on: MCF7 breast cancer cells
Description: Additionally, adherent A375, MCF7, U251, DU145, U87, and A549 cells were set at a density of 3.5×10^3 cells/well in 200 μL of media on day −1. On day 0, media was removed and replenished with 150 μL of fresh media, and cells were treated with ATF5 peptide as described. Following a 48-hour incubation at 37° C., floating cells were collected, adherent cells were washed with Dulbecco's Phosphate Buffered Saline (DPBS), dissociated from the dish with 50 μL 2.5% trypsin at RT, and combined with floating cells. Cell viability was determined as described above for suspension cells or by MTT assay (MCF7 cells). Alternatively, cells were gently removed from the cell culture plate following trypsinization with 2.5% trypsin, and cell viability was quantified by flow cytometry using an Abcam Annexin V FITC apoptosis detection kit, as described above.

[5] = tested on: neoplastic cells / wide range of tumor cell types; assay: Cytotoxic activity across tumor cell types
Description: as §1, with “Briefly, cells were washed with PBS and resuspended in 1× assay buffer containing Annexin V FITC and propidium iodide (PI).” left out, “XML. […] Cell viability was determined as described above for suspension cells or by MTT assay (MCF7 cells). Alternatively, cells were gently removed from the cell culture plate following trypsinization with 2.5% trypsin, and cell viability was quantified by flow cytometry using an Abcam Annexin V FITC apoptosis detection kit, as described above.” for “XML.”

[6] = HL60 cell viability assay, 48 hours

Row | Molecule | cytotoxic activity compared with other peptides [1, 6] | other results
1 | CC[C@@H](C)[C@@H](NC(=O)[C@@H](CCCCN)NC(=O)[C@H](NC(=O)[C@@H](Cc1c[nH]c2ccccc12)NC(=O)[C@@H](Cc1ccccc1)NC(=O)[C@@H](CCC(N)=O)NC(=O)[C@@H](CC(N)=O)NC(=O)[C@@H](CCCNC(=N)N)NC(=O)[C@@H](CCCNC(=N)N)NC(=O)[C@@H](CCSC)NC(=O)[C@@H](CCCCN)NC(=O)[C@@H](Cc1c[nH]c2ccccc12)NC(=O)[C@@H](CCCCN)NC(=O)[C@@H](CCCCN)NC(=O)[C@@H](CC(C)C)NC(=O)[C@@H](CCC(=O)O)NC(=O)CNC(=O)[C@@H](CCCNC(=N)N)NC(=O)[C@@H](C)NC(=O)[C@@H](CCC(N)=O)NC(=O)CNC(=O)[C@@H](CC(C)C)NC(=O)[C@@H](CCCNC(=N)N)NC(=O)[C@@H](C)NC(=O)[C@@H](CCC(=O)O)NC(=O)[C@@H](CC(C)C)NC(=O)[C@@H](CCCNC(=N)N)NC(=O)[C@@H](CCC(=O)O)NC(=O)[C@@H](CC(C)C)NC(=O)[C@@H](CCC(=O)O)NC(=O)[C@@H](CCC(=O)O)NC(=O)[C@@H](CCCNC(=N)N)NC(=O)[C@@H](C)NC(=O)[C@@H](CCC(=O)O)NC(=O)[C@@H](C)NC(=O)[C@H](N)C(C)C)[C@H](C)CC)C(=O)N[C@H](CCC(N)=O)C(=O)N[C@H](CCCNC(=N)N)C(=O)O [ST-13] |  | cytotoxic activity compared with other peptides [1]: comparable activity to ST-11, and superior activity to ST-3; EC50 [2]: < 1 µM; EC50 [3]: 17.7 µM; EC50 [4]: < 1 µM; cytotoxic activity in tumor / neoplastic cells [5]: significant cytotoxic activity
2 | RQIKIWFQNRRMKWKKLEGEAQGLEARNRELKERAESV [ST-5] | attenuated but not ablated | 
3 | RQIKIWFQNRRMKWKKLEGECQGLEARNRELKERAEAV [ST-6] | comparable activity to ST-3 | 
4 | RQIKIWFQNRRMKWKKLEGECQGLEARNRELKERAESV [ST-3, reference compound] |  | cytotoxic activity in tumor / neoplastic cells [5]: induces cell death in neoplastic cells
5 | RQIKIWFQNRRMKWKKLEGEGQGLEARNRELKERAESV [ST-4] | attenuated but not ablated | 
6 | RQIKIWFQNRRMKWKKLEGRAQGLRAELRELEERAEAV [ST-11] | improved cytotoxic activity over ST-3 | 
7 | RQIKIWFQNRRMKWKKLEGRCQGLRAELRELEERAEAV [ST-10] | comparable to that of ST-9 | 
8 | RQIKIWFQNRRMKWKKLEGRCQGLRAENRELEERAESV [ST-9] | significantly increased over that of ST-3 | 
